Test results reported in US12319672B2, “Alpha-D-galactopyranoside derivatives” (Idorsia Pharmaceuticals Ltd, priority 2019, dated 2025).

Columns and labels:
[1] = target: human Gal-3 (hGal-3) (Homo sapiens (Human), UniProt P17931); test: Competitive binding assay: binding of biotinylated hGal-3 to microplate-adsorbed asialofetuin (ASF); conditions: Activity on hGal-3; mean values of several measurements
Method in brief: (§1)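 Spectrophotometric readout (streptavidin-peroxidase, ABTS) of biotinylated galectin retained on ASF-coated wells. Biotinylated hGal-1 or hGal-3, 300-1000 ng/mL, co-incubated with test compound 3 h at 4° C, then washed. Mean IC50 from repeat runs.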

[2] = target: human Gal-1 (hGal-1); test: Competitive binding assay: binding of biotinylated hGal-1 to microplate-adsorbed asialofetuin (ASF); conditions: Activities on hGal-1; mean values of several measurements
human Gal-1 (hGal-1), sequence (P09382 2-135 limits assumed): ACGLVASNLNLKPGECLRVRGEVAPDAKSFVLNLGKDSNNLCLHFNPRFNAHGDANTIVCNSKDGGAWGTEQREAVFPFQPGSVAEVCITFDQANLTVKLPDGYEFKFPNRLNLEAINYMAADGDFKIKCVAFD
Method in brief: as §1

human Gal-3 (hGal-3), sequence (P17931 whole entry): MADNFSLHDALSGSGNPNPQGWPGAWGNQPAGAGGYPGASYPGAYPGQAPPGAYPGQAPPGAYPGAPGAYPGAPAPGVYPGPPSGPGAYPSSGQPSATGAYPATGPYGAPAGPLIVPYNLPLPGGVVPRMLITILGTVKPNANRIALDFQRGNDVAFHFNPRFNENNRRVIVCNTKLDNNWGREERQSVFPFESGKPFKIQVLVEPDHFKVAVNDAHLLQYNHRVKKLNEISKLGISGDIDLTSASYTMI

Structure (SMILES) | IC50 [1] [nM] | IC50 [2] [nM]
CO[C@@H]1[C@@H](n2cc(-c3cc(F)c(F)c(F)c3)nn2)[C@@H](O)[C@@H](CO)O[C@@H]1Cc1cc(C2(O)CCC2)no1 [Example 2.56, (2R,3R,4S,5R,6R)-6-((3-(1-hydroxycyclobutyl)isoxazol-5-yl)methyl)-2-(hydroxymethyl)-5-methoxy-4-(4-(3,4,5-trifluorophenyl)-1H-1,2,3-triazol-1-yl)tetrahydro-2H-pyran-3-ol] | 490 | 1770
CO[C@@H]1[C@@H](n2cc(-c3ccc(Cl)c(F)c3F)nn2)[C@@H](O)[C@@H](CO)O[C@@H]1Cc1cc(C2(O)CCC2)no1 [Example 2.59, (2R,3R,4S,5R,6R)-4-(4-(4-chloro-2,3-difluorophenyl)-1H-1,2,3-triazol-1-yl)-6-((3-(1-hydroxycyclobutyl)isoxazol-5-yl)methyl)-2-(hydroxymethyl)-5-methoxytetrahydro-2H-pyran-3-ol] | 84 | 2300
CO[C@@H]1[C@@H](n2cc(-c3cc(F)c(F)c(F)c3)nn2)[C@@H](O)[C@@H](CO)O[C@@H]1Cc1cc(C(C)(C)O)no1 [Example 2.60, (2R,3R,4S,5R,6R)-2-(hydroxymethyl)-6-((3-(2-hydroxypropan-2-yl)isoxazol-5-yl)methyl)-5-methoxy-4-(4-(3,4,5-trifluorophenyl)-1H-1,2,3-triazol-1-yl)tetrahydro-2H-pyran-3-ol] | 400 | 7390
CO[C@@H]1[C@@H](n2cc(-c3ccc(F)c(F)c3F)nn2)[C@@H](O)[C@@H](CO)O[C@@H]1Cc1cc(C(C)(C)O)no1 [Example 2.61, (2R,3R,4S,5R,6R)-2-(hydroxymethyl)-6-((3-(2-hydroxypropan-2-yl)isoxazol-5-yl)methyl)-5-methoxy-4-(4-(2,3,4-trifluorophenyl)-1H-1,2,3-triazol-1-yl)tetrahydro-2H-pyran-3-ol] | 110 | 780
CO[C@@H]1[C@@H](n2cc(-c3ccc(C)c(F)c3F)nn2)[C@@H](O)[C@@H](CO)O[C@@H]1Cc1cc(C(C)(C)O)no1 [Example 2.62, (2R,3R,4S,5R,6R)-4-(4-(2,3-difluoro-4-methylphenyl)-1H-1,2,3-triazol-1-yl)-2-(hydroxymethyl)-6-((3-(2-hydroxypropan-2-yl)isoxazol-5-yl)methyl)-5-methoxytetrahydro-2H-pyran-3-ol] | 36 | 2280
CO[C@@H]1[C@@H](n2cc(-c3ccc(Cl)c(F)c3F)nn2)[C@@H](O)[C@@H](CO)O[C@@H]1Cc1cc(C(C)(C)O)no1 [Example 2.63, (2R,3R,4S,5R,6R)-4-(4-(4-chloro-2,3-difluorophenyl)-1H-1,2,3-triazol-1-yl)-2-(hydroxymethyl)-6-((3-(2-hydroxypropan-2-yl)isoxazol-5-yl)methyl)-5-methoxytetrahydro-2H-pyran-3-ol] | 74 | 1730
CO[C@@H]1[C@@H](n2cc(-c3cc(F)c(F)c(F)c3)nn2)[C@@H](O)[C@@H](CO)O[C@@H]1C[C@@H]1CC(C2CCNCC2)=NO1 [Example 3.06, (2R,3R,4S,5R,6R)-2-(hydroxymethyl)-5-methoxy-6-(((S)-3-(piperidin-4-yl)-4,5-dihydroisoxazol-5-yl)methyl)-4-(4-(3,4,5-trifluorophenyl)-1H-1,2,3-triazol-1-yl)tetrahydro-2H-pyran-3-ol] | 280 | 2090
CO[C@@H]1[C@@H](n2cc(-c3cc(F)c(F)c(F)c3)nn2)[C@@H](O)[C@@H](CO)O[C@@H]1C[C@H]1CC(C2CCNCC2)=NO1 [Example 3.07, (2R,3R,4S,5R,6R)-2-(hydroxymethyl)-5-methoxy-6-(((R)-3-(piperidin-4-yl)-4,5-dihydroisoxazol-5-yl)methyl)-4-(4-(3,4,5-trifluorophenyl)-1H-1,2,3-triazol-1-yl)tetrahydro-2H-pyran-3-ol] | 1860 | 15100
OC[C@H]1O[C@H](Cc2cc(C3CCNCC3)on2)[C@H](O)[C@@H](n2cc(-c3cc(F)c(F)c(F)c3)nn2)[C@H]1O [Example 3.08, (2R,3R,4R,5R,6R)-2-(hydroxymethyl)-6-((5-(piperidin-4-yl)isoxazol-3-yl)methyl)-4-(4-(3,4,5-trifluorophenyl)-1H-1,2,3-triazol-1-yl)tetrahydro-2H-pyran-3,5-diol] | 290 | 12500
CC(=O)N1CCC(C2=NO[C@@H](C[C@H]3O[C@H](CO)[C@H](O)[C@H](n4cc(-c5cc(F)c(F)c(F)c5)nn4)[C@H]3O)C2)CC1 [Example 3.10, 1-(4-((R)-5-(((2R,3R,4R,5R,6R)-3,5-dihydroxy-6-(hydroxymethyl)-4-(4-(3,4,5-trifluorophenyl)-1H-1,2,3-triazol-1-yl)tetrahydro-2H-pyran-2-yl)methyl)-4,5-dihydroisoxazol-3-yl)piperidin-1-yl)ethan-1-one] | 620 | 5500
CC(=O)N1CCC(C2=NO[C@H](C[C@H]3O[C@H](CO)[C@H](O)[C@H](n4cc(-c5cc(F)c(F)c(F)c5)nn4)[C@H]3O)C2)CC1 [Example 3.11, 1-(4-((S)-5-(((2R,3R,4R,5R,6R)-3,5-dihydroxy-6-(hydroxymethyl)-4-(4-(3,4,5-trifluorophenyl)-1H-1,2,3-triazol-1-yl)tetrahydro-2H-pyran-2-yl)methyl)-4,5-dihydroisoxazol-3-yl)piperidin-1-yl)ethan-1-one] | 150 | 1380
CO[C@@H]1[C@@H](n2cc(-c3cc(F)c(F)c(F)c3)nn2)[C@@H](O)[C@@H](CO)O[C@@H]1C[C@@H]1CC(C2CCN(C(C)=O)CC2)=NO1 [Example 3.12, 1-(4-((S)-5-(((2R,3R,4S,5R,6R)-5-hydroxy-6-(hydroxymethyl)-3-methoxy-4-(4-(3,4,5-trifluorophenyl)-1H-1,2,3-triazol-1-yl)tetrahydro-2H-pyran-2-yl)methyl)-4,5-dihydroisoxazol-3-yl)piperidin-1-yl)ethan-1-one] | 70 | 520
CO[C@@H]1[C@@H](n2cc(-c3cc(F)c(F)c(F)c3)nn2)[C@@H](O)[C@@H](CO)O[C@@H]1C[C@H]1CC(C2CCN(C(C)=O)CC2)=NO1 [Example 3.13, 1-(4-((R)-5-(((2R,3R,4S,5R,6R)-5-hydroxy-6-(hydroxymethyl)-3-methoxy-4-(4-(3,4,5-trifluorophenyl)-1H-1,2,3-triazol-1-yl)tetrahydro-2H-pyran-2-yl)methyl)-4,5-dihydroisoxazol-3-yl)piperidin-1-yl)ethan-1-one] | 670 | 4020
CC(=O)O[C@@H]1[C@@H](n2cc(-c3cc(F)c(F)c(F)c3)nn2)[C@@H](O)[C@@H](CO)O[C@@H]1Cc1cc(C2CCNCC2)on1 [Example 3.15, (2R,3R,4S,5R,6R)-5-hydroxy-6-(hydroxymethyl)-2-((5-(piperidin-4-yl)isoxazol-3-yl)methyl)-4-(4-(3,4,5-trifluorophenyl)-1H-1,2,3-triazol-1-yl)tetrahydro-2H-pyran-3-yl acetate] | 140 | 13600
CO[C@@H]1[C@@H](n2cc(-c3cc(F)c(F)c(F)c3)nn2)[C@@H](O)[C@@H](CO)O[C@@H]1Cc1cc(C2CCNCC2)on1 [Example 3.16, (2R,3R,4S,5R,6R)-2-(hydroxymethyl)-5-methoxy-6-((5-(piperidin-4-yl)isoxazol-3-yl)methyl)-4-(4-(3,4,5-trifluorophenyl)-1H-1,2,3-triazol-1-yl)tetrahydro-2H-pyran-3-ol] | 220 | 5190
CC(=O)N1CCC([C@H]2CC(C[C@H]3O[C@H](CO)[C@H](O)[C@H](n4cc(-c5cc(F)c(F)c(F)c5)nn4)[C@H]3O)=NO2)CC1 [Example 3.19, 1-(4-((R)-3-(((2R,3R,4R,5R,6R)-3,5-dihydroxy-6-(hydroxymethyl)-4-(4-(3,4,5-trifluorophenyl)-1H-1,2,3-triazol-1-yl)tetrahydro-2H-pyran-2-yl)methyl)-4,5-dihydroisoxazol-5-yl)piperidin-1-yl)ethan-1-one] | 430 | 4720
CC(=O)N1CCC([C@@H]2CC(C[C@H]3O[C@H](CO)[C@H](O)[C@H](n4cc(-c5cc(F)c(F)c(F)c5)nn4)[C@H]3O)=NO2)CC1 [Example 3.20, 1-(4-((S)-3-(((2R,3R,4R,5R,6R)-3,5-dihydroxy-6-(hydroxymethyl)-4-(4-(3,4,5-trifluorophenyl)-1H-1,2,3-triazol-1-yl)tetrahydro-2H-pyran-2-yl)methyl)-4,5-dihydroisoxazol-5-yl)piperidin-1-yl)ethan-1-one] | 240 | 1850
CO[C@@H]1[C@@H](n2cc(-c3cc(F)c(F)c(F)c3)nn2)[C@@H](O)[C@@H](CO)O[C@@H]1Cc1cc(C2CCN(C(C)=O)CC2)on1 [Example 3.21, 1-(4-(3-(((2R,3R,4S,5R,6R)-5-hydroxy-6-(hydroxymethyl)-3-methoxy-4-(4-(3,4,5-trifluorophenyl)-1H-1,2,3-triazol-1-yl)tetrahydro-2H-pyran-2-yl)methyl)isoxazol-5-yl)piperidin-1-yl)ethan-1-one] | 46 | 590
CC(=O)O[C@@H]1[C@@H](n2cc(-c3cc(F)c(F)c(F)c3)nn2)[C@@H](O)[C@@H](CO)O[C@@H]1Cc1cc(C2CCN(C(C)=O)CC2)on1 [Example 3.22, (2R,3R,4S,5R,6R)-2-((5-(1-acetylpiperidin-4-yl)isoxazol-3-yl)methyl)-5-hydroxy-6-(hydroxymethyl)-4-(4-(3,4,5-trifluorophenyl)-1H-1,2,3-triazol-1-yl)tetrahydro-2H-pyran-3-yl acetate] | 28 | 1870
